We go through 26 compounds from patent publication US10450288B2, “Hydroxy formamide derivatives and their use” (GLAXOSMITHKLINE INTELLECTUAL PROPERTY (NO.2) LIMITED, priority 2014, dated 2019).

The subject of the assay is human cardiac fibroblasts. Briefly: Cell-based inhibition assay of generation of procollagen I C-terminal propeptide (PICP), PICP ELISA. Particulars: Cardiac fibroblast, read-out: pIC50, PICP cellular inhibition assay (converted). As to the method: Cell-Based Inhibition Assay of Generation of Procollagen I C-Terminal Propeptide (PICP) and Mature Collagen:
An adaptation of the collagen deposition assay described by Chen, C. Z. C., et al., British Journal of Pharmacology, 2009, 158, 1196-1209 was used to examine effect of compounds on procollagen I processing and collagen deposition. In the adapted assay, human cardiac fibroblasts were utilized. Processing of procollagen I was determined by a PICP ELISA assay and deposition of mature collagen was determined by immunostaining.
Human cardiac fibroblasts were cultured and maintained until passage 6 in FGM-3 media (Lonza, #CC-3132) in a 37° C. humidified incubator with 5% CO2. They were then seeded in 96-well black wall, clear bottom plates at 10,000 to 15,000 cells per well in eagle's minimum essential media (EMEM, ATCC #30-2003) containing 10% fetal bovine serum (FBS, Life Technologies #10082147), 1% Glutamax (Life Technologies #35050061) and 1% Penicillin and Streptomycin (Life Technologies #15070063). These cultures were placed in 37° C. incubator. The next day, media were removed by aspiration and cells were rinsed with phosphate buffered saline. Crowding media (also called ficoll media) was prepared by adding 112.5 mg/ml of ficoll70 and 75 mg/ml ficoll400 (GE healthcare #17-0310-10 and 17-0300-10, respectively), 100 μM ascorbic acid, 1% Glutamax and 1% Penicillin and Streptomycin to EMEM media. Test compounds (dissolved in DMSO) were diluted into crowding media and then added to the cells. Final concentration of DMSO in crowding media was less than 0.3%. Cells were treated for 24 to 48 hr in a 37° C. incubator. At the end of the treatment period, cell media were collected. The level of PICP in the media were determined by a PICP ELISA assay (Quidel #8003) following the manufacturer's protocol. Potencies of test compounds were calculated by fitting PICP levels, relative to untreated controls, to log (inhibitor) vs. response equation using Graphpad Prism software 5.0 and expressed as pIC50.
On the technique in general: In an ELISA, binding on a coated surface is turned into a signal by an enzyme label.

Setting [1] is: human cardiac fibroblasts, crowding media, 24 to 48 hr, PICP ELISA of media.

Read-outs that look alike come from different tables or passages of the source.

For `CCCCC[C@@H](C(=O)NCNC(=O)c1ccc(-c2cc(O)cc(OCC)c2)o1)[C@@H](CC)N(O)C=O` [Example 73, 5-(3-ethoxy-5-hydroxyphenyl)-N-(((R)-2-((R)-1-(N-hydroxyformamido)propyl)heptanamido)methyl)furan-2-carboxamide], under setting [1], the IC50 was < 3.98 µM. The same measure, in the same setting: to `CCCCC[C@@H](C(=O)NCNC(=O)c1ccc(-c2ccc(C(=O)NCP(=O)(O)O)c(C)c2)o1)[C@@H](CC)N(O)C=O` [Example 144, ((4-(5-((((R)-2-((R)-1-(N-hydroxyformamido)propyl)heptanamido)methyl)carbamoyl)furan-2-yl)-2-methylbenzamido)methyl)phosphonic acid] belongs < 3.98 µM; to `CCCCC[C@@H](C(=O)NCNC(=O)c1ccc(-c2cc(OCC)cc(C(=O)N[C@H](CC(=O)O)C(=O)O)c2)o1)[C@@H](CC)N(O)C=O` [Example 84, (R)-2-(3-ethoxy-5-(5-((((R)-2-((R)-1-(N-hydroxy-formamido)propyl)heptanamido)methyl)carbamoyl)furan-2-yl)benzamido) succinic acid], < 3.98 µM.

On to `CCCCC[C@@H](C(=O)NCNC(=O)c1ccc(-c2cc(CC(=O)O)cc(OCC)c2)o1)[C@@H](CC)N(O)C=O` [Example 72, 2-(3-ethoxy-5-(5-((((R)-2-((R)-1-(N-hydroxyformamido)propyl)heptanamido)methyl)carbamoyl)furan-2-yl)phenyl)acetic acid], for which the IC50 (Homo sapiens) is < 3.98 µM. As for `CCCCC[C@H](CN(O)C=O)C(=O)NCNC(=O)c1ccc(-c2cccc(OCC(F)(F)F)c2)o1` [Example 23, (R)-N-((2-((N-hydroxyformamido)methyl)heptanamido)methyl)-5-(3-(2,2,2-trifluoroethoxy)phenyl) furan-2-carboxamide], under setting [1], the IC50 was < 3.98 µM. Still for that read-out and setting: the result for `CCCCC[C@@H](C(=O)NCNC(=O)c1ccc(-c2ccc(CC(=O)O)cc2)o1)[C@@H](CC)N(O)C=O` [Example 42, 2-(4-(5-((((R)-2-((R)-1-(N-hydroxyformamido)propyl)heptanamido)methyl)carbamoyl)furan-2-yl)phenyl)acetic acid] reads < 3.98 µM; that for `CCOc1cc(-c2ccc(C(=O)NCNC(=O)[C@H](CCc3ccccc3)[C@@H](CC)N(O)C=O)o2)cc(P(=O)(O)O)c1` [Example 140], < 3.98 µM.

With `CCCCC[C@H](CN(O)C=O)C(=O)NCNC(=O)c1ccc(-c2cc(OCC)cc(C(=O)O)c2)o1` [Example 30, (R)-3-ethoxy-5-(5-(((2-((N-hydroxyformamido)methyl)heptanamido)methyl)carbamoyl)furan-2-yl)benzoic acid], the IC50 under setting [1] was < 3.98 µM. On the same count and under the same terms, to `CCCCC[C@@H](C(=O)NCNC(=O)c1ccc(-c2ccc(C3(C(=O)O)CC3)cc2)o1)[C@@H](CC)N(O)C=O` [Example 44, 1-(4-(5-((((R)-2-((R)-1-(N-hydroxyformamido)propyl)heptanamido)methyl)carbamoyl)furan-2-yl)phenyl)cyclopropane-carboxylic acid] belongs < 3.98 µM. On to `CCCCC[C@@H](C(=O)NCNC(=O)c1ccc(-c2cc(OCC)cc(C(=O)NCCN)c2)o1)[C@@H](CC)N(O)C=O` [Example 40, 5-(3-((2-aminoethyl)carbamoyl)-5-ethoxyphenyl)-N-(((R)-2-((R)-1-(N-hydroxyformamido)propyl)heptanamido)methyl) furan-2-carboxamide], for which the IC50 under setting [1] is < 3.98 µM. Same read-out and setting: the result for `CCCCC[C@@H](C(=O)NCNC(=O)c1ccc(-c2ccc(C(=O)NCP(=O)(O)O)c(O)c2)o1)[C@@H](CC)N(O)C=O` [Example 142, ((2-hydroxy-4-(5-((((R)-2-((R)-1-(N-hydroxyformamido)propyl)heptanamido)methyl)carbamoyl)furan-2-yl)benzamido)methyl)phosphonic acid] reads < 3.98 µM. As for `CCCCC[C@H](CN(O)C=O)C(=O)NCNC(=O)c1ccc(-c2cccc(OCC)c2)o1` [Example 14, (R)-5-(3-ethoxyphenyl)-N-((2-((N-hydroxyformamido)methyl)heptanamido)methyl) furan-2-carboxamide], under setting [1], the IC50 was < 3.98 µM. Take `CCCCC[C@@H](C(=O)NCNC(=O)c1ccc(-c2ccc(C(C)(C)C(=O)O)cc2)o1)[C@@H](CC)N(O)C=O` [Example 43, 2-(4-(5-((((R)-2-((R)-1-(N-hydroxyformamido)propyl)heptanamido)methyl)carbamoyl)furan-2-yl)phenyl)-2-methylpropanoic acid]: the IC50 under setting [1] was < 3.98 µM. Turning to `CCCCC[C@@H](C(=O)NCNC(=O)c1ccc(-c2ccc(C(=O)N[C@@H](CCC(=O)O)C(=O)O)cc2)o1)[C@@H](CC)N(O)C=O` [Example 134, (S)-2-(4-(5-((((R)-2-((R)-1-(N-hydroxyformamido)propyl)heptanamido)methyl)carbamoyl)furan-2-yl)benzamido) pentanedioic acid], the IC50 under setting [1] is < 3.98 µM. With `CCCCC[C@H](CN(O)C=O)C(=O)NCNC(=O)c1ccc(-c2cc(OC)ccn2)o1` [Example 18, (R)-N-((2-((N-hydroxyformamido)methyl)heptanamido)methyl)-5-(4-methoxypyridin-2-yl)furan-2-carboxamide], the IC50 under setting [1] was < 3.98 µM. On the same count and under the same terms, the result for `CCCCC[C@H](CN(O)C=O)C(=O)NCNC(=O)c1ccc(-c2cccc(OCC(F)F)c2)o1` [Example 102, (R)-5-(3-(2,2-difluoroethoxy)phenyl)-N-((2-((N-hydroxyformamido)methyl)heptanamido)methyl)furan-2-carboxamide] reads < 3.98 µM. `CCCCC[C@H](CN(O)C=O)C(=O)NCNC(=O)c1ccc(-c2ccc(C(=O)O)cc2)o1` [Example 92, (R)-4-(5-(((2-((N-hydroxyformamido)methyl)heptanamido)methyl)carbamoyl)furan-2-yl)benzoic acid]: the IC50 under setting [1] was < 3.98 µM. As to `CCCCC[C@@H](C(=O)NCNC(=O)c1ccc(-c2ccc(F)c(CC(=O)O)c2)o1)[C@@H](CC)N(O)C=O` [Example 70, 2-(2-fluoro-5-(5-((((R)-2-((R)-1-(N-hydroxyformamido)propyl)heptanamido)methyl)carbamoyl)furan-2-yl)phenyl)acetic acid], where the note is “Homo sapiens”, the IC50 was < 3.98 µM. In the case of `CCCCC[C@H](CN(O)C=O)C(=O)NCNC(=O)c1ccc(-c2cccc(C(=O)O)c2OC)o1` [Example 55, (R)-3-(5-(((2-((N-hydroxyformamido)methyl)heptanamido)methyl)carbamoyl)furan-2-yl)-2-methoxybenzoic acid], the IC50 under setting [1] is < 3.98 µM. `CCCCC[C@H](CN(O)C=O)C(=O)NCNC(=O)c1ccc(-c2cccc(P(=O)(O)OC)c2)o1` [Example 95, methyl hydrogen (3-(5-((((R)-2-((N-hydroxyformamido)methyl)heptanamido)methyl)carbamoyl)furan-2-yl)phenyl)phosphonate]: the IC50 (Homo sapiens) was < 3.98 µM. Take `CCCCC[C@H](CN(O)C=O)C(=O)NCNC(=O)c1ccc(-c2cccc(OC(F)(F)F)c2)o1` [Example 13, (R)-N-((2-((N-hydroxyformamido)methyl)heptanamido)methyl)-5-(3-(trifluoromethoxy)phenyl) furan-2-carboxamide carboxamide]: under setting [1], the IC50 is < 3.98 µM. On the same count and under the same terms, the result for `CCCCC[C@@H](C(=O)NCNC(=O)c1ccc(-c2cc(OCC)cc(C(F)(F)C(=O)O)c2)o1)[C@@H](CC)N(O)C=O` [Example 49, 2-(3-ethoxy-5-(5-((((R)-2-((R)-1-(N-hydroxyformamido)propyl)heptanamido)methyl)carbamoyl)furan-2-yl)phenyl)-2,2-difluoroacetic acid] reads < 3.98 µM; that for `CCCCC[C@@H](C(=O)NCNC(=O)c1ccc(-c2cc(OCC)cc(C(=O)NC(CO)(CO)CO)c2)o1)[C@@H](CC)N(O)C=O` [Example 88, 5-(3-((1,3-dihydroxy-2-(hydroxymethyl)propan-2-yl)carbamoyl)-5-ethoxyphenyl)-N—(((R)-2-((R)-1-(N-hydroxyformamido)propyl)heptanamido)methyl)furan-2-carboxamide], < 3.98 µM; that for `CCCCC[C@H](CN(O)C=O)C(=O)NCNC(=O)c1ccc(-c2ccc3cnn(C)c3c2)o1` [Example 106, (R)—N-((2-((N-hydroxyformamido)methyl)heptanamido)methyl)-5-(1-methyl-1H-indazol-6-yl)furan-2-carboxamide], < 3.98 µM.

For `CCCCC[C@H](CN(O)C=O)C(=O)NCNC(=O)c1ccc(-c2cccc(S(N)(=O)=O)c2)o1` [Example 12, (R)-N-((2-((N-hydroxyformamido)methyl)heptanamido)methyl)-5-(3-sulfamoylphenyl)furan-2-carboxamide], the IC50 under setting [1] was < 3.98 µM. Still for that read-out and setting: the result for `CCCCC[C@H](CN(O)C=O)C(=O)NCNC(=O)c1ccc(-c2cccc(P(=O)(O)O)c2)o1` [Example 108, (R)-(3-(5-(((2-((N-hydroxyformamido)methyl)heptanamido)methyl)carbamoyl)furan-2-yl)phenyl)phosphonic acid] reads < 3.98 µM.
